Measurements taken from publication PMC5555199, “Mechanism of pathogen recognition by human dectin-2” (The Journal of Biological Chemistry, 2017).

Biological target: T1, untagged form of the CRD (human dectin-2) (Homo sapiens, UniProt Q6EIG7)
T1 construct: gene CLEC6A; extended C-type carbohydrate-recognition domain starting at Leu-64, preceded by Met-Ala; untagged; one monomer in the asymmetric unit
T1 sequence (Q6EIG7 64-209): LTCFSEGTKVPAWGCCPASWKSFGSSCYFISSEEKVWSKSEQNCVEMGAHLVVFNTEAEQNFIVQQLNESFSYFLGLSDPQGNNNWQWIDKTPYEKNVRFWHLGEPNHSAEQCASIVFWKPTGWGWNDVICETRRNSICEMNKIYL
Assay: X-ray crystallography, […] Å
Type: binding
Conditions: pH 8.0, Ca2+; primary Ca2+ site plus adjacent secondary site; D1 and D2 branches at 50% occupancy each

CC(=O)N[C@H]1[C@H](O[C@H]2[C@H](O)[C@@H](NC(C)=O)C(O)O[C@@H]2CO)O[C@H](CO)[C@@H](O[C@@H]2O[C@H](CO[C@H]3O[C@H](CO[C@H]4O[C@H](CO)[C@@H](O)[C@H](O)[C@@H]4O[C@H]4O[C@H](CO)[C@@H](O)[C@H](O)[C@@H]4O)[C@@H](O)[C@H](O[C@H]4O[C@H](CO)[C@@H](O)[C@H](O)[C@@H]4O[C@H]4O[C@H](CO)[C@@H](O)[C@H](O)[C@@H]4O)[C@@H]3O)[C@@H](O)[C@H](O[C@H]3O[C@H](CO)[C@@H](O)[C@H](O)[C@@H]3O[C@H]3O[C@H](CO)[C@@H](O)[C@H](O)[C@@H]3O[C@H]3O[C@H](CO)[C@@H](O)[C@H](O)[C@@H]3O)[C@@H]2O)[C@@H]1O (stereo partly shown) [Man9GlcNAc2]
X-ray crystallography, 2.4 Å: crystals obtained with the untagged form of the CRD in combination with Man9GlcNAc2 oligosaccharide
